ChEMBL document CHEMBL5727188, “GLS1 inhibitors for treating disease” (2019)
pIC50: −log10 of the molar value.

What follows are compounds tested against T1, Glutaminase kidney isoform, mitochondrial (Homo sapiens, UniProt O94925) (assay: Enzymatic Activity Assay: The inhibition of purified recombinant human GAC by varying concentrations of inhibitors is assessed via a dual-coupled enzymatic assay. The glutamate produced by the glutaminase reaction is used by glutamate oxidase to produce α-ketoglutarate, ammonia, and hydrogen peroxide, with this hydrogen peroxide subsequently being used by horseradish peroxidase to produce resorufin in the presence of Amplex UltraRed. The assay buffer consisted of 50 mM Hepes (pH 7.4), 0.25 mM EDTA and 0.1 mM Triton X-100. GAC was incubated with potassium phosphate (10 minutes at room temperature) prior to incubation with inhibitor (10 minutes at room temperature). The final reaction conditions were as follows: 2 nM GAC, 50 mM potassium phosphate, 100 mU/mL glutamate oxidase (Sigma), 1 mM glutamine (Sigma), 100 mU/mL horseradish peroxidase (Sigma), 75 μM Amplex UltraRed (Life Technologies), and 1% (v/v) DMSO. The production of resorufin was monitored on a Perkin Elmer Envision plate reader (excitation 530 nm, emission 590 nm) either in a kinetics or endpoint mode (at 20 minutes). IC50 values were calculated using a four-parameter logistic curve fit.).
T1 sequence (O94925 whole entry): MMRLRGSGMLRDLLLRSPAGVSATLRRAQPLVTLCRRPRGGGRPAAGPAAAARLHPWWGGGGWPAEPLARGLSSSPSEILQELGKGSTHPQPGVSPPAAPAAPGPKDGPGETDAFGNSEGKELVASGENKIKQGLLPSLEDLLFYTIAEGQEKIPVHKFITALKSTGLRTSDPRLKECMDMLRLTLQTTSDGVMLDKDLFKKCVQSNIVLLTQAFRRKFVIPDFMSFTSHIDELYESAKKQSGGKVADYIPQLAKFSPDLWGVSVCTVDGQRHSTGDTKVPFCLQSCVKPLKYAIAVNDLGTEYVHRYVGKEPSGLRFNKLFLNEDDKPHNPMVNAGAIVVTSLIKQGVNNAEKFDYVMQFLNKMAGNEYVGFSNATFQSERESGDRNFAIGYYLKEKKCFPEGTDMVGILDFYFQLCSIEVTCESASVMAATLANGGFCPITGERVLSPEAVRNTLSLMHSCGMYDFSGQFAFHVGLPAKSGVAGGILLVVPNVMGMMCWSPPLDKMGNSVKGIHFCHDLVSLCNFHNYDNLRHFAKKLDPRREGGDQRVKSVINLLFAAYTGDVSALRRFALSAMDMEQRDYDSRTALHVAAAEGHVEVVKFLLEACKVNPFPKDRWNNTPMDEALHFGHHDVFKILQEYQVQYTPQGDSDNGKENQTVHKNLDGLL

Row | SMILES | pIC50
1 | O=C(NCc1cc(C2CC2)ccn1)c1cn(CCC(F)Cn2cc(C(=O)NCc3cccc(C4CC4)c3)nn2)nn1 (stereo not drawn) | > 7.00
2 | COc1cncc(CNC(=O)c2cn(CC(F)CCc3nnc(NC(=O)Cc4cccc(OC(F)(F)F)c4)s3)nn2)c1 (stereo not drawn) | > 7.00
3 | O=C(NCc1cccc(OC(F)(F)F)c1)c1cn(CCCCn2cc(C(=O)NCc3ccc(C(F)(F)F)cn3)nn2)nn1 | > 7.00
